{"source": "patent US20100022415A1", "about": "“ACTIVE CARRIER, ITS PRODUCTION AND ITS USE” (AVICOR KET., priority 2006, published 2010)", "system": "streptavidin", "assay": "Affinity chromatography: elution of labeled streptavidin from biotinylated glass beads", "format": "binding", "conditions": "washing with solutions of increasing concentrations; absorbance of eluate (FIG. 5)", "procedure": "The biotinylated glass beads were added to 1 ml PBS, to which 50 μg of streptavidin labeled with Cy5 fluorescent dye was added (total dye: 0.3 OD640/ml). The resulting solution was stirred, then OD640 was measured again, the detected value was 0.003. […] Two chromatographic analyses were performed to verify the specific binding. During the first, 100 mg of the biotinylated glass beads was washed with biotin solutions with increasing concentrations, and in the second, the column containing biotinylated glass beads was washed with benzamidine solutions of increasing concentrations. The absorbance of the eluate was measured continuously (FIG. 5).", "data": [{"smiles": "O=C(O)CCCC[C@@H]1SC[C@@H]2NC(=O)N[C@@H]21", "note": "[biotin]", "values": [{"measurement": "Elution of fluorescent labeled streptavidin from biotinylated glass beads", "result": "could be eluted only with the biotin solution"}]}]}
